# Columns and labels:
# CCK B = biological target: T1, CCK B (Mus musculus, UniProt P56481); assay: CCK receptor binding, displacement of tritiated-pentagastrin from cerebral cortical membranes (CCK B); design: species or system mouse (male CFLP); conditions: mouse cerebral cortex membranes, 2 nM tritiated-pentagastrin
# T1 construct: from tissue; host or cells: cerebral cortex of male CFLP mice (30-40 g), washed membranes
# T1 sequence (P56481 1-453): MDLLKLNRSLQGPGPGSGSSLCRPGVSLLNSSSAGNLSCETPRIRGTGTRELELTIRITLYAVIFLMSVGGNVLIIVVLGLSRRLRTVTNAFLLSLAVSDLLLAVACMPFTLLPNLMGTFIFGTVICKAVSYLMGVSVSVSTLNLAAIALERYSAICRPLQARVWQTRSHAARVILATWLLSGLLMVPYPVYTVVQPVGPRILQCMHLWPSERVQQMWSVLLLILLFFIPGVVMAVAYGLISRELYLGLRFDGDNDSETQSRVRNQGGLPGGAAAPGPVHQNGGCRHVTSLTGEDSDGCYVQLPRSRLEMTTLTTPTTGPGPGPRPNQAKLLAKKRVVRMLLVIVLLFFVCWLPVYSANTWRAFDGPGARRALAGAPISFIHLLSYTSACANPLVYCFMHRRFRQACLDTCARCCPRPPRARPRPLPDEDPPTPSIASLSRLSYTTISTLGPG
# Description: (§1) The biological activity of compounds of the present invention was evaluated employing an initial screening test which rapidly and accurately measured the binding of the tested compound to known CCK receptor sites. […] (See Hays et al, Neuropeptides 1:53-62, 1980; and Satuer et al, Science 208:1155-1156, 1980.
# In this screening test, the cerebral cortices taken from male CFLP mice weighing between 30-40 g were dissected on ice, weighed, and homogenized in 10 volumes of 50 mM Tris-HCl buffer (pH 7.4 at 0°-4° C.). The resulting suspension was centrifuged, the supernate was discarded, and the pellet was washed by resuspension in Tris-HCl buffer followed by recentrifugation. The final pellet was resuspended in 20 volumes of […] buffer (pH 7.2 at 23° C.) containing 130 mM NaCl, […], […], […], 5 mg/mL bovine albumin, and bacitracin (0.25 mg/ml).
# In saturation studies, cerebral cortical membranes were incubated at 23° C. for 120 minutes in a final volume of 500 μliter of Hepes incubation buffer (pH 7.2) together with 0.2-20 nM tritiated-pentagastrin (Amersham International, England).
# In the displacement experiments, membranes were incubated with a single concentration (2 nM) of ligand, together with increasing concentrations (10^-11 to […]) of competitive test compound. In each case, the nonspecific binding was defined as that persisting in the presence of the unlabeled octapeptide CCK26-33 (10^-6 M).
# Following incubation, radioactivity bound to membranes was separated from that free in solution by rapid filtration through Whatman GF/B filters and washed three times with 4 mL of ice cold Tris-HCl buffer. Filters from samples incubated with tritiated-pentagastrin were placed in polyethylene vials with 4 mL of scintillation cocktail, and the radioactivity was estimated by liquid scintillation spectrometry (efficiency 47-52%).
# The specific binding to CCK receptor sites was defined as the total bound tritiated-pentagastrin minus the amount of tritiated-pentagastrin bound in the presence of 10^-6 octapeptide, CCK 26-33.
# Saturation curves for specific tritiated-pentagastrin binding to mouse cortical membranes were analyzed by the methods of Scatchard (Ann. New York Acad. Sci. 51:660-672, 1949, and Hill (J. Phvsiol. 40:IV-VIII, 1910, to provide estimates for the maximum number of binding sites (Bmax) and the equilibrium dissociation constant (Ka).
# In displacement experiments, inhibition curves were analyzed by either logit-log plots or the iterative curve fitting computer program ALLFIT (DeLean, Munson and Redbard, 1978) to provide estimates of the IC50 and nH (apparent Hill coefficient) values). (IC50 values were defined as the concentration of test compound required to produce 50% inhibition of specific binding.)
# (§2) The inhibition constant (Ki) of the test compound was then calculated according to the Cheng-Prusoff equation: [formula] where [L] is the concentration of radiolabel and Ka is the equilibrium dissociation constant.
# CCK A = assay: CCK receptor binding (CCK A); conditions: assay not described
# Description: as §1, §2
SMILES,Ki (CCK B) [nM],Ki (CCK A) [nM]
"CC1(C)[C@H]2CC[C@]1(C)[C@H](OC(=O)N[C@](C)(Cc1c[nH]c3ccccc13)C(=O)NC1CCc3ccccc3C1=O)C2 (single isomer, unassigned) [Compound 4, Carbamic acid, [1-(1H-indol-3-ylmethyl)-1 methyl-2-oxo-2-[(1,2,3,4-tetrahydro-1-oxo 2-naphthalenyl)amino]ethyl]-, 1,7,7-trimethyl-bicyclo[2.2.1]hept-2-yl ester]",94,7620
"CC(Cc1c[nH]c2ccccc12)(NC(=O)OC1C2CC3CC(C2)CC1C3)C(=O)NC1CCCc2ccccc21 (racemic) [Compound 6, Carbamic acid, [1-(1H-indol-3-ylmethyl)-1-methyl-2-oxo-2-[(1,2,3,4-tetrahydro-1-naphthalenyl)amino]ethyl]-, tricyclo[3.3.1.1^3,7]-dec-2-yl ester, (±)-]",45,5220
"CC(Cc1c[nH]c2ccccc12)(NC(=O)OC1C2CC3CC(C2)CC1C3)C(=O)NC1CCc2ccccc2C1 (racemic) [Compound 7, Carbamic acid, [1-1H-indol-3-ylmethyl)-1-methyl-2-oxo-2 [(1,2,3,4-tetrahydro-2-naphthalenyl)amino]ethyl]-, tricyclo[3.3.1.1^3,7]-dec-2-yl ester, (±)-]",330,–
"CC1(C)[C@H]2CC[C@]1(C)[C@H](OC(=O)N[C@](C)(Cc1c[nH]c3ccccc13)C(=O)NC1CCc3ccccc3C1=O)C2 (single isomer, unassigned) [Compound 5, Carbamic acid, [1-(1H-indol-3 ylmethyl)-1-methyl-2-oxo-2-[(1-2,3,4-tetrahydro-1-oxo-2-naphthalenyl)amino]ethyl]-, 1,7,7-trimethylbicyclo[2.2.1.1]hept-2-yl ester]",59,–
"CC1(C)[C@H]2CC[C@]1(C)[C@H](OC(=O)N[C@](C)(Cc1c[nH]c3ccccc13)C(=O)N[C@H]1Cc3ccccc3[C@@H]1O)C2 [Compound 2, Carbamic acid, [2-[(2,3-dihydro-1-hydroxy-1H-inden-2-yl)amino]-1-1H-indol-3-ylmethyl)-2-methyl-2-oxoethyl]-, 1,7,7-trimethylbicyclo-[2.2.1]hept-2-yl ester, [1S*[1α,2β[S-(trans)],4α]]-]",111,5300

# Continued by falling Ki (CCK B), values first:
Ki (CCK B) [nM],Ki (CCK A) [nM],SMILES
450,–,"C[C@](Cc1c[nH]c2ccccc12)(NC(=O)OC1C2CC3CC(C2)CC1C3)C(=O)N1CCc2ccccc2C1 (stereo partly drawn) [Compound 8, Carbamic acid, [1-(1H-indol-3-ylmethyl)-1-methyl-2-oxo-2-(1,2,3,4-tetrahydro-2-isoquinolinyl)ethyl]-, tricyclo[3.3.1.1^3.7]-dec-2-yl ester, (R)-]"
280,–,"CC1(C)[C@H]2CC[C@]1(C)[C@H](OC(=O)N[C@](C)(Cc1c[nH]c3ccccc13)C(=O)NC1c3ccccc3CC1O)C2 (stereo partly drawn) [Compound 1, Carbamic acid, [2-[(2,3-dihydro-2-hydroxy-1H-inden-1-yl)amino]-1-(1H-indol-3-ylmethyl)-1-methyl-2-oxoethyl]-, 1,7,7-trimethylbicyclo-[2.2.1]hept 2-yl ester]"
30,3870,"CC1(C)[C@H]2CC[C@]1(C)[C@H](OC(=O)N[C@](C)(Cc1c[nH]c3ccccc13)C(=O)N[C@@H]1Cc3ccccc3[C@H]1O)C2 [Compound 3, Carbamic acid, [2-[(2,3-dihydro 1-hydroxy-1H-inden-2-yl)amino]-1-(1H-indol-3-ylmethyl)-1-methyl-2-oxoethyl]-, 1,7,7-trimethylbicyclo-[2.2.1]hept-2-yl ester, [1S-[1α,2β[S*(1S*,2S*)],4α]]-]"
